Values quoted from earlier work, collected in patent publication US7333894B2, “Methods for the diagnosis of hemodialysis patients and utilization of such methods to improve the administration of intravenous levocarnitine treatments to hemodialysis patients” (Sigma-Tau Pharmaceuticals, Inc., priority 2002, dated 2008).

Tests used:
[1] = hemodialysis patient, one dialysis session
[2] = intravenous administration at the end of a dialysis session, ESRD patients

C[N+](C)(C)C[C@H](O)CC(=O)[O-] [carnitine, levocarnitine]
carnitine present in the plasma removed during a dialysis session [1]: more than 70%
time for plasma carnitine levels to return to pre-dialysis baseline levels [2]: 10 to 24 h
